In brackets after ≈: the same amount, converted by molar mass. Like-named read-outs stand apart in the source and are kept apart here. Some results are limits rather than exact numbers.

Data set [1] deals with non-replicating M. tuberculosis. As to the kind of experiment: microbe, parasite or virus in culture. The following applies: for MIC: Mycobacterium tuberculosis. The format is cell-based, Mycobacterium tuberculosis.
Data set [2] relates to replicating M. tuberculosis. As to the kind of experiment: MIC under replication (R) conditions. The format is cell-based, Mycobacterium tuberculosis. The note with it: Mycobacterium tuberculosis.
Another data set relates to HepG2 cells. The format is cell-based. The protocol:
Three lead compounds were identified in the first round of high throughput screening (700 compounds), which had minimal inhibitory concentrations (MIC) of 0.4-0.8 μg/mL after a six day exposure to drug (NRd6) in the model of non-replication at pH 5.0, and LD50's of 100 to >100 μg/mL against HepG2 cells (a 2 day exposure).
Furthermore, LD50 values were determined using a human hepatoma cell line (HepG2) using intracellular ATP levels as a measurement that correlated with cellular viability.

Another data set relates to Escherichia coli. In words: Antibiotic spectrum: Escherichia coli. The format is cell-based. The note with it: Gram negative, replicating conditions, n=1 experiment.
For a further data set, the system named is Streptococcus. In words: Antibiotic spectrum: Streptococcus. It is filed as cell-based. The note with it: Gram positive, replicating conditions, n=1 experiment.
The subject of another data set is Pseudomonas aeruginosa. As to the kind of experiment: Antibiotic spectrum: Pseudomonas aeruginosa. The note with it: Gram negative, replicating conditions, n=1 experiment. It is filed as cell-based.
For a further data set, the system named is Staphylococcus aureus. As to the kind of experiment: Antibiotic spectrum: Staphylococcus aureus. The format is cell-based. The following applies: Gram positive, replicating conditions, n=1 experiment.
[3] abbreviates: read-out: MIC NR at 0.01 Inoc. and 3 Day Exposure to Drug, 7 Day Outgrowth, Table 8, ranges from multiple assays.
[4] abbreviates: read-out: MIC NR at 0.01 Inoc. and 3 Day Exposure to Drug, 11 Day Outgrowth, Table 8, ranges from multiple assays.
[5] abbreviates: 72 h, Table 9, 3 Day Exposure to Drug, read-out: MIC NR 0.01 Inoc.
Setting [6] is: 72 h, Table 9, 3 Day Exposure to Drug, read-out: MIC NR 0.1 Inoc.
The mark [7] stands for this setting: Table 8, ranges from multiple assays.

For the molecule `CCCN[C@@H]1C(=O)N2C(C(=O)OCCC)=C(C)CS[C@H]12` [Compound 11c, (6R,7R)-propyl 3-methyl-8-oxo-7-(propylamino)-5-thia-1-azabicyclo[4.2.0]oct-2-ene-2-carboxylate], the “selectivity index (LD50/MIC-NRd6)” value in data set [1] came to 129. Besides, the MIC in data set [1] (72 h, pH 5, Table 2, library samples (purity approximately 75%), read-out: MIC NR pH 5.0, day 3 exposure) was 6.3 µg/mL (≈ 21.1 µM); in data set [1] (144 h, pH 5, Table 2, library samples (purity approximately 75%), read-out: MIC NR pH 5.0, day 6 exposure) it was 1.6 µg/mL (≈ 5.36 µM); in data set [1] (pH 5, read-out: MIC NR pH 5, D3 exposure) it was 1.6 µg/mL (≈ 5.36 µM); in data set [1] (pH 5, read-out: MIC NR pH 5, D6 exposure), 0.4 µg/mL (≈ 1.34 µM); in data set [1] (setting [3]) it was 0.39 to 0.78 µg/mL (≈ 1.31 to 2.61 µM); in data set [1] (setting [4]), 0.78 µg/mL (≈ 2.61 µM). The MIC in data set [2] (pH 6.6, read-out: MIC pH 6.6, R cells) was > 100 µg/mL; in the data set with Escherichia coli (Escherichia coli, read-out: MIC against Escherichia coli), > 100 µg/mL; in the data set with Streptococcus (Streptococcus, read-out: MIC against Streptococcus), > 100 µg/mL; with Pseudomonas aeruginosa (Pseudomonas aeruginosa, read-out: MIC against Pseudomonas aeruginosa), > 100 µg/mL; with Staphylococcus aureus (Staphylococcus aureus, read-out: MIC against Staphylococcus aureus), > 100 µg/mL. For the same molecule, the “HepG2 Toxicity LD50” value with HepG2 cells (human, 2 day) is on record as 100−>100. The HepG2 toxicity with HepG2 cells (human, 2 day) was >100 µg/mL. Moreover, in the data set with Escherichia coli, the “MIC against Escherichia coli” value was >100 µg/mL. The “MIC against Streptococcus” value with Streptococcus was >100 µg/mL. The “MIC against Pseudomonas aeruginosa” value against Pseudomonas aeruginosa was >100 µg/mL. Further, the “MIC against Staphylococcus aureus” value in the data set with Staphylococcus aureus was >100 µg/mL.

`CC1=C(C(=O)O)N2C(=O)[C@@H](NC(=O)CCc3ccc(Br)cc3)[C@H]2SC1` [Compound 111]: the MIC was > 100 µg/mL in data set [1] (setting [5]); > 100 µg/mL in data set [1] (setting [6]); 100 µg/mL (≈ 235 µM) in data set [2] (Table 9, read-out: MIC R). For the same molecule, the “HepG2 LD50” value in the data set on HepG2 cells (human, 2 day) was >100 µg/mL.

With `CC1=C(C(=O)O)N2C(=O)[C@@H](NC(=O)c3ccc(Cl)cc3)[C@H]2SC1` [Compound 114], the MIC in data set [1] (setting [5]) was > 100 µg/mL; in data set [1] (setting [6]), > 100 µg/mL; in data set [2] (Table 9, read-out: MIC R), > 100 µg/mL. In addition, the “HepG2 LD50” value in the data set on HepG2 cells (human, 2 day) was >100 µg/mL.

With `CC1=C(C(=O)O)N2C(=O)[C@@H](NC(=O)CCc3ccc(F)cc3)[C@H]2SC1` [Compound 113], the MIC in data set [1] (setting [5]) was > 100 µg/mL; in data set [1] (setting [6]) it was > 100 µg/mL; in data set [2] (Table 9, read-out: MIC R), 100 µg/mL (≈ 274 µM). The “HepG2 LD50” value in the data set with HepG2 cells (human, 2 day) was >100 µg/mL.

Regarding `CCCCOC(=O)C1C(C)=CS[C@@H]2[C@H](NC(=O)COc3ccccc3)C(=O)N12` (stereo partly drawn) [Compound 119], the MIC in data set [1] (3,4-olefinic isomers, read-out: minimum inhibitory concentration against non-replicating M. tuberculosis) was determined as 3.1 µg/mL (≈ 7.66 µM); in data set [2] (read-out: minimum inhibitory concentration against replicating M. tuberculosis) it was 100 µg/mL (≈ 247 µM).

Consider `CC1=C(C(=O)O)N2C(=O)[C@@H](NC(=O)COc3ccccc3)[C@H]2SC1` [Compound 109], for which the MIC in data set [1] (setting [5]) was 100 µg/mL (≈ 287 µM); in data set [1] (setting [6]), > 100 µg/mL; in data set [2] (Table 9, read-out: MIC R), > 100 µg/mL. Moreover, the “HepG2 LD50” value with HepG2 cells (human, 2 day) was >100 µg/mL.

On to `CC1=C(C(=O)O)N2C(=O)[C@@H](NC(=O)CCc3ccccc3Cl)[C@H]2SC1` [Compound 116], for which the MIC in data set [1] (setting [5]) is > 100 µg/mL; in data set [1] (setting [6]) it was > 100 µg/mL; in data set [2] (Table 9, read-out: MIC R), > 100 µg/mL. Besides, in the data set with HepG2 cells (human, 2 day), the “HepG2 LD50” value is >100 µg/mL.

Consider `C#CCOC(=O)C1=C(C)CS[C@@H]2[C@H](NC(=O)CCc3ccccc3)C(=O)N12` [Compound 91], for which, in data set [1] (setting [7]), the “MIC NR at 0.01 Inoc. and 3 Day Exposure to Drug, 7 Day Outgrowth” value stood at 0.78 µg/mL (≈ 2.03 µM); the “MIC NR at 0.01 Inoc. and 3 Day Exposure to Drug, 11 Day Outgrowth” value amounted to 1.56 µg/mL (≈ 4.06 µM). In addition, the “HepG2 Toxicity LD50” value with HepG2 cells (Table 8) is >100 µg/mL.

With `CC1=C(C(=O)O)N2C(=O)[C@@H](NC(=O)Cc3ccc(Cl)cc3)[C@H]2SC1` [Compound 115], the MIC in data set [1] (setting [5]) was > 100 µg/mL; in data set [1] (setting [6]) it was > 100 µg/mL; in data set [2] (Table 9, read-out: MIC R), 100 µg/mL (≈ 273 µM). Also, the “HepG2 LD50” value with HepG2 cells (human, 2 day) is >100 µg/mL.

Turning to `CCCOC(=O)C1=C(C)CS[C@@H]2[C@H](NC(=O)CCc3ccc(OC)cc3)C(=O)N12` [Compound 99], the MIC in data set [1] (setting [3]) was 0.1 µg/mL (≈ 0.239 µM); in data set [1] (setting [4]), 0.2 µg/mL (≈ 0.478 µM). Also, the “HepG2 Toxicity LD50” value in the data set on HepG2 cells (human, 2 day) was >100 µg/mL.

With `COc1ccc(CCC(=O)N[C@@H]2C(=O)N3C(C(=O)OCc4ccccc4)=C(C)CS[C@H]23)cc1` [Compound 101], the MIC in data set [1] (setting [3]) turned out to be 0.39 µg/mL (≈ 0.836 µM); in data set [1] (setting [4]), 0.78 µg/mL (≈ 1.67 µM). For the same molecule, the “HepG2 Toxicity LD50” value in the data set with HepG2 cells (human, 2 day) is >100 µg/mL.

With `C#CCOC(=O)C1=C(C)CS[C@@H]2[C@H](NC(=O)CCc3ccc(Cl)cc3)C(=O)N12` [Compound 97], in data set [1] (setting [7]), the “MIC NR at 0.01 Inoc. and 3 Day Exposure to Drug, 7 Day Outgrowth” value came out at 0.39 µg/mL (≈ 0.931 µM); the “MIC NR at 0.01 Inoc. and 3 Day Exposure to Drug, 11 Day Outgrowth” value was determined as 0.78 µg/mL (≈ 1.86 µM). Further, the “HepG2 Toxicity LD50” value in the data set with HepG2 cells (Table 8) is 100 µg/mL.

As for `CC1=C(C(=O)O)N2C(=O)[C@@H](NS(=O)(=O)Cc3ccccc3)[C@H]2SC1` [Compound 112], the MIC is > 100 µg/mL in data set [1] (setting [5]); > 100 µg/mL in data set [1] (setting [6]); > 100 µg/mL in data set [2] (Table 9, read-out: MIC R). The “HepG2 LD50” value in the data set on HepG2 cells (human, 2 day) was >100 µg/mL.

The values above are taken from patent publication US10059722B2, “Cephalosporin derivatives and methods of use” (priority 2012, dated 2018).
